The values that follow come from ChEMBL document CHEMBL4406836, “The design of a cell-selective fowlicidin-1-derived peptide with both antimicrobial and anti-inflammatory activities” (Eur J Med Chem, 2019).

As a reminder, the MIC is the lowest concentration found to suppress growth. In general, inhibition refers to the share of the control response that was lost under treatment.

In data set [1] the test system is Pseudomonas aeruginosa. The data set is described as follows: Antibacterial activity against multidrug-resistant Pseudomonas aeruginosa CCARM 2095 assessed as reduction in bacterial growth at 4 uM incubated for 72 hrs in presence of chloramphenicol by spectrophotometry. Particulars: CCARM 2095, 72 h. It is filed as functional.
Data set [2] deals with Staphylococcus aureus. Format: functional. Conditions: CCARM 3089, 72 h.
The test system of data set [3] is Pseudomonas aeruginosa. The data set is described as follows: Potentiation of oxacillin-induced antibacterial activity against mutidrug-resistant Pseudomonas aeruginosa CCARM 2095 assessed as reduction in oxacillin MIC at 1/16th MIC incubated for 72 hrs by spectrophotometry. Format: functional.
For data set [4], the system named is RAW264.7. The data set is described as follows: Antiinflammatory activity in mouse RAW264.7 cells assessed as reduction in LPS-induced iNOS gene expression at 4 uM incubated for 3 hrs by qRT-PCR analysis. It is filed as functional, cell-based. For orientation: Real-time PCR tracks product formation cycle by cycle.
Data set [5] relates to Pseudomonas aeruginosa. The data set is described as follows: Antibacterial activity against multidrug-resistant Pseudomonas aeruginosa CCARM 2095 assessed as reduction in bacterial growth incubated for 72 hrs by spectrophotometry. Particulars: CCARM 2095, 72 h. Format: functional.
Data set [6] concerns Staphylococcus aureus. The data set is described as follows: Antibacterial activity against methicillin-resistant Staphylococcus aureus CCARM 3090 assessed as reduction in bacterial growth incubated for 18 hrs by spectrophotometry based microtiter broth dilution method. It is filed as functional. Conditions: CCARM 3090, 18 h. For orientation: Broth dilution looks for growth in wells or tubes with falling amounts of substance.

In data set [7] the test system is Pseudomonas aeruginosa. In words: Fractional inhibitory concentration index, sum of ratio of MIC of compound in presence of […] and ratio of MIC of compound in presence of oxacillin to MIC of compound for antibacterial activity against multidrug-resistant Pseudomonas aeruginosa CCARM 2095. It is filed as functional.
Data set [8] has as its system Staphylococcus aureus. It is filed as functional. Particulars: CCARM 3089, 72 h. This is another data set of the same source.
Data set [9] concerns Staphylococcus aureus. The data set is described as follows: Antibacterial activity against methicillin-resistant Staphylococcus aureus CCARM 3095 assessed as reduction in bacterial growth incubated for 18 hrs by spectrophotometry based microtiter broth dilution method. Conditions: CCARM 3095, 18 h. Format: functional.
Data set [10] deals with Staphylococcus aureus. In words: Fractional inhibitory concentration index, sum of ratio of MIC of compound in presence of […] uM ciprofloxacin to MIC of ciprofloxacin and ratio of MIC of compound in presence of ciprofloxacin to MIC of ciprofloxacin for antibacterial activity against methicillin-resistant Staphylococcus aureus CCARM 3089. It is filed as functional.
Data set [11] relates to RAW264.7. The data set is described as follows: Antiinflammatory activity in mouse RAW264.7 cells assessed as reduction in LPS-induced TNFalpha gene expression at 8 uM incubated for 6 hrs by qRT-PCR analysis. It is filed as functional, cell-based.
In data set [12] the test system is Pseudomonas aeruginosa. In words: Potency index, ratio of MIC of melittin to MIC of compound for antibacterial activity against multidrug-resistant Pseudomonas aeruginosa CCARM 2109 assessed as reduction in bacterial growth incubated for 18 hrs by spectrophotometry based microtiter broth dilution method. Format: functional.
For data set [13], the system named is Staphylococcus aureus. In words: Antibacterial activity against Staphylococcus aureus KCTC 1621 assessed as reduction in bacterial growth incubated for 18 hrs in presence of 6 uM NH4Cl by spectrophotometry based microtiter broth dilution method. Format: functional. Particulars: KCTC 1621, 18 h.
The test system of data set [14] is RAW264.7. In words: Antiinflammatory activity in mouse RAW264.7 cells assessed as reduction in LPS-induced NO production at 4 uM incubated for 24 hrs by Griess reagent based assay relative to control. It is filed as functional. Particulars: RAW264.7, 24 h. In general terms: Nitrite, measured by Griess reagent, commonly stands in for NO production.
In data set [15] the test system is Pseudomonas aeruginosa. The data set is described as follows: Potency index, ratio of MIC of LL-37 to MIC of compound for antibacterial activity against multidrug-resistant Pseudomonas aeruginosa CCARM 2095 assessed as reduction in bacterial growth incubated for 18 hrs by spectrophotometry based microtiter broth dilution method. Format: functional.
In data set [16] the test system is Staphylococcus aureus. In words: Antibacterial activity against Staphylococcus aureus KCTC 1621 assessed as reduction in bacterial growth incubated for 18 hrs by spectrophotometry based microtiter broth dilution method. Format: functional. Conditions: KCTC 1621, 18 h.
The subject of data set [17] is Pseudomonas aeruginosa. The data set is described as follows: Potency index, ratio of MIC of LL-37 to MIC of compound for antibacterial activity against multidrug-resistant Pseudomonas aeruginosa CCARM 2109 assessed as reduction in bacterial growth incubated for 18 hrs by spectrophotometry based microtiter broth dilution method. It is filed as functional.
The test system of data set [18] is Staphylococcus aureus. In words: Antibacterial activity against methicillin-resistant Staphylococcus aureus CCARM 3089 assessed as reduction in bacterial growth at 4 uM incubated for 72 hrs in presence of chloramphenicol by spectrophotometry. Conditions: CCARM 3089, 72 h. Format: functional.
The test system of data set [19] is Escherichia coli. The data set is described as follows: Antibacterial activity against Escherichia coli KCTC 1682 assessed as reduction in bacterial growth incubated for 18 hrs by spectrophotometry based microtiter broth dilution method. It is filed as functional. Particulars: KCTC 1682, 18 h.
The subject of data set [20] is Escherichia coli. The data set is described as follows: Antibacterial activity against Escherichia coli KCTC 1682 assessed as reduction in bacterial growth incubated for 18 hrs in presence of 20 % human serum by spectrophotometry based microtiter broth dilution method. It is filed as functional. Particulars: KCTC 1682, 18 h.
Data set [21] is described as follows: Therapeutic index, ratio of MHC10 for hemolytic activity in sheep RBC assessed as minimal hemolytic concentration causing 10% hemolysis to MIC for antibacterial activity. Conditions: sheep red blood cells. Format: toxicity.
Data set [22] relates to Staphylococcus aureus. In words: Antibacterial activity against Staphylococcus aureus KCTC 1621 assessed as reduction in bacterial growth incubated for 18 hrs in presence of 4.5 mM KCl by spectrophotometry based microtiter broth dilution method. It is filed as functional. Conditions: KCTC 1621, 18 h.
Data set [23] relates to Staphylococcus aureus. In words: Antibacterial activity against Staphylococcus aureus KCTC 1621 assessed as reduction in bacterial growth incubated for 18 hrs in presence of 1 mM MgCl2 by spectrophotometry based microtiter broth dilution method. It is filed as functional. Particulars: KCTC 1621, 18 h.
For data set [24], the system named is Escherichia coli. In words: Antibacterial activity against Escherichia coli KCTC 1682 assessed as reduction in bacterial growth incubated for 18 hrs in presence of 4.5 mM KCl by spectrophotometry based microtiter broth dilution method. Particulars: KCTC 1682, 18 h. It is filed as functional.
In data set [25] the test system is Escherichia coli. The data set is described as follows: Antibacterial activity against Escherichia coli KCTC 1682 assessed as reduction in bacterial growth incubated for 18 hrs in presence of 2.5 mM CaCl2 by spectrophotometry based microtiter broth dilution method. Format: functional. Conditions: KCTC 1682, 18 h.
Data set [26] relates to Lipopolysaccharide (LPS). In words: Displacement of BODIPY-TR-cadaverine from Escherichia coli O111:B4 LPS by fluorescence spectrophotometry.
Data set [27] relates to Escherichia coli. The data set is described as follows: Antibacterial activity against Escherichia coli KCTC 1682 assessed as reduction in bacterial growth incubated for 18 hrs in presence of 150 mM NaCl by spectrophotometry based microtiter broth dilution method. It is filed as functional. Conditions: KCTC 1682, 18 h.
In data set [28] the test system is RAW264.7. In words: Antiinflammatory activity in mouse RAW264.7 cells assessed as reduction in LPS-induced NO production at 10 uM incubated for 48 hrs by Griess reagent based assay. Format: functional, cell-based.
Data set [29] relates to Staphylococcus aureus. The data set is described as follows: Antibacterial activity against Staphylococcus aureus KCTC 1621 assessed as reduction in bacterial growth incubated for 18 hrs in presence of 2.5 mM CaCl2 by spectrophotometry based microtiter broth dilution method. It is filed as functional. Conditions: KCTC 1621, 18 h.
In data set [30] the test system is Staphylococcus aureus. The data set is described as follows: Antibacterial activity against Staphylococcus aureus KCTC 1621 assessed as reduction in bacterial growth incubated for 18 hrs in presence of 20% human serum by spectrophotometry based microtiter broth dilution method. It is filed as functional. Conditions: KCTC 1621, 18 h.
For data set [31], the system named is Staphylococcus aureus. In words: Potency index, ratio of MIC of LL-37 to MIC of compound for antibacterial activity against methicillin-resistant Staphylococcus aureus CCARM 3089 assessed as reduction in bacterial growth incubated for 18 hrs by spectrophotometry based microtiter broth dilution method. Format: functional.
Data set [32] concerns Pseudomonas aeruginosa. The data set is described as follows: Antibacterial activity against Pseudomonas aeruginosa KCTC 1637 assessed as reduction in bacterial growth incubated for 18 hrs by spectrophotometry based microtiter broth dilution method. Format: functional. Particulars: KCTC 1637, 18 h.
The subject of data set [33] is Enterococcus faecium. The data set is described as follows: Potency index, ratio of MIC of LL-37 to MIC of compound for antibacterial activity against vancomycin-resistant Enterococcus faecium ATCC 51559 assessed as reduction in bacterial growth incubated for 18 hrs by spectrophotometry based microtiter broth dilution method. Format: functional.

Converted amounts (≈) assume the structure as drawn. The source made the active and inactive calls. The rule behind the calls is not given here.

As to `CC[C@H](C)[C@H](NC(=O)[C@H](CCCCN)NC(=O)[C@H](CCC(=O)O)NC(=O)[C@H](CCCCN)NC(=O)[C@H](CO)NC(=O)[C@H](CCCCN)NC(=O)[C@H](CCCNC(=N)N)NC(=O)[C@H](Cc1ccccc1)NC(=O)[C@H](Cc1ccccc1)NC(=O)[C@H](CC(=O)O)NC(=O)CNC(=O)[C@H](CC(C)C)NC(=O)[C@@H](N)CC(C)C)C(=O)NCC(=O)N[C@@H](CCCCN)C(=O)N[C@@H](CCC(=O)O)C(=O)N[C@@H](Cc1ccccc1)C(=O)N[C@@H](CCCCN)C(=O)N[C@@H](CCCNC(=N)N)C(=O)N[C@H](C(=O)N[C@H](C(=O)N[C@@H](CCC(N)=O)C(=O)N[C@@H](CCCNC(=N)N)C(=O)N[C@H](C(=O)N[C@@H](CCCCN)C(=O)N[C@@H](CC(=O)O)C(=O)N[C@@H](Cc1ccccc1)C(=O)N[C@@H](CC(C)C)C(=O)N[C@@H](CCCNC(=N)N)C(=O)N[C@@H](CC(N)=O)C(=O)N[C@@H](CC(C)C)C(=O)N[C@H](C(=O)N1CCC[C@H]1C(=O)N[C@@H](CCCNC(=N)N)C(=O)N[C@H](C(=O)N[C@@H](CCC(=O)O)C(=O)N[C@@H](CO)C(=O)O)[C@@H](C)O)C(C)C)[C@@H](C)CC)C(C)C)[C@@H](C)CC` [CATHELICIDIN], the MIC worked out at 2 µM in [1]; 256 µM (≈ 1150 µg/mL) in data set [2]; 4 µM (≈ 18 µg/mL) in data set [5]; 4 µM (≈ 18 µg/mL) in data set [6]; 256 µM (≈ 1150 µg/mL) in [8]; 16 µM (≈ 71.9 µg/mL) in data set [9]. In addition, the “fold change (FC)” value in data set [3] is 2 - 4. The inhibition result in data set [4] and in [11] was “Active” in each case. Also, the “fractional inhibitory concentration index (FICI)” value in [7] is recorded as 2; in data set [10], 1.25.
Take H-LVIRWVRAGYKLYRAIKKK-NH2: the Ratio in data set [12], in [15], in data set [17], in [31] and in [33] was 2 - 8 each time. Further, the MIC was 2 µM in data set [13]; 2 µM in data set [16]; 0.5 µM in data set [18]; 4 µM in data set [19]; 256 µM in data set [2]; 8 µM in data set [20]. Moreover, the MIC in data set [22] turned out to be 2 µM; in data set [23] it was 4 µM; in data set [24], 4 µM; in data set [5], 2 µM; in data set [6], 2 µM; in data set [25] it was 4 µM. Also, the MIC in data set [27] is 4 µM; in [8], 128 µM; in [9], 2 µM; in [29], 2 µM; in [30], 4 µM; in [32], 8 µM. The inhibition at 4 µM in data set [14] turned out to be 94.2%. The “fold change (FC)” value in [3] is listed as 4 - 16. Further, the selectivity ratio in data set [21] came out at 28.4. The “fractional inhibitory concentration index (FICI)” value in data set [7] was 0.5; in [10] it was 0.375. Besides, in [26], the inhibition entry was “Dose-dependent effect”. Also, the result in data set [28] was Active.
